Reference: ChEMBL document CHEMBL1138608, “The discovery of potent, selective, and orally bioavailable PDE9 inhibitors as potential hypoglycemic agents” (Bioorg Med Chem Lett, 2009)

Legend:
[1] = target: Dual specificity calcium/calmodulin-dependent 3',5'-cyclic nucleotide phosphodiesterase 1B (Homo sapiens, UniProt Q01064); experiment: Inhibition of PDE1b
[2] = target: Dual specificity calcium/calmodulin-dependent 3',5'-cyclic nucleotide phosphodiesterase 1A (Homo sapiens, UniProt P54750); experiment: Inhibition of PDE1a
[3] = target: Dual specificity calcium/calmodulin-dependent 3',5'-cyclic nucleotide phosphodiesterase 1C (Homo sapiens, UniProt Q14123); experiment: Inhibition of PDE1c
[4] = target: High affinity 3',5'-cyclic-AMP phosphodiesterase 7A (Homo sapiens, UniProt Q13946); experiment: Inhibition of PDE7a
Mus musculus [5] = experiment: Free plasma concentration at terminal bleed in ob/ob mouse at 250 mg/kg, po administered by subchronic dosing for 4 days after 3 hrs of last dose; settings: Mus musculus, Plasma
[6] = Oral bioavailability in rat; settings: in vivo
[7] = target: High affinity cAMP-specific and IBMX-insensitive 3',5'-cyclic phosphodiesterase 8A (Homo sapiens, UniProt O60658); experiment: Inhibition of PDE8a
[8] = Volume of distribution at steady state in rat; settings: in vivo
[9] = target: cGMP-specific 3',5'-cyclic phosphodiesterase (Homo sapiens, UniProt O76074); experiment: Inhibition of PDE5
[10] = target: cGMP-inhibited 3',5'-cyclic phosphodiesterase 3A (Homo sapiens, UniProt Q14432); experiment: Inhibition of PDE3a
[11] = target: 3',5'-cyclic-AMP phosphodiesterase 4A (Homo sapiens, UniProt P27815); experiment: Inhibition of PDE4a
[12] = Inhibition of PDE2
[13] = Inhibition of PDE6
Mus musculus [14] = experiment: Free plasma concentration at terminal bleed in ob/ob mouse at 100 mg/kg, po administered by subchronic dosing for 4 days after 3 hrs of last dose; settings: Mus musculus, Plasma
[15] = target: 3',5'-cyclic-AMP phosphodiesterase 4B (Homo sapiens, UniProt Q07343); experiment: Inhibition of PDE4b
[16] = target: cGMP-inhibited 3',5'-cyclic phosphodiesterase 3B (Homo sapiens, UniProt Q13370); experiment: Inhibition of PDE3b
Mus musculus [17] = experiment: Free plasma concentration at terminal bleed in ob/ob mouse at 500 mg/kg, po administered by subchronic dosing for 4 days after 3 hrs of last dose; settings: Mus musculus, Plasma
[18] = target: 3',5'-cyclic-AMP phosphodiesterase 7B (Homo sapiens, UniProt Q9NP56); experiment: Inhibition of PDE7b
[19] = target: 3',5'-cyclic-AMP phosphodiesterase 4D (Homo sapiens, UniProt Q08499); experiment: Inhibition of PDE4d
[20] = target: 3',5'-cyclic-AMP phosphodiesterase 4C (Homo sapiens, UniProt Q08493); experiment: Inhibition of PDE4c
in vivo = settings: rat
[21] = Inhibition of PDE11
[22] = target: High affinity cAMP-specific and IBMX-insensitive 3',5'-cyclic phosphodiesterase 8B (Homo sapiens, UniProt O95263); experiment: Inhibition of PDE8b
[23] = target: High affinity cGMP-specific 3',5'-cyclic phosphodiesterase 9A (Homo sapiens, UniProt O76083); experiment: Inhibition of human recombinant PDE9 expressed in SF9 cells by scintillation proximity assay
[24] = Inhibition of PDE10
[25] = Apparent permeability across MDCK cells; settings: dog

Chain of Dual specificity calcium/calmodulin-dependent 3',5'-cyclic nucleotide phosphodiesterase 1A (P54750 whole entry): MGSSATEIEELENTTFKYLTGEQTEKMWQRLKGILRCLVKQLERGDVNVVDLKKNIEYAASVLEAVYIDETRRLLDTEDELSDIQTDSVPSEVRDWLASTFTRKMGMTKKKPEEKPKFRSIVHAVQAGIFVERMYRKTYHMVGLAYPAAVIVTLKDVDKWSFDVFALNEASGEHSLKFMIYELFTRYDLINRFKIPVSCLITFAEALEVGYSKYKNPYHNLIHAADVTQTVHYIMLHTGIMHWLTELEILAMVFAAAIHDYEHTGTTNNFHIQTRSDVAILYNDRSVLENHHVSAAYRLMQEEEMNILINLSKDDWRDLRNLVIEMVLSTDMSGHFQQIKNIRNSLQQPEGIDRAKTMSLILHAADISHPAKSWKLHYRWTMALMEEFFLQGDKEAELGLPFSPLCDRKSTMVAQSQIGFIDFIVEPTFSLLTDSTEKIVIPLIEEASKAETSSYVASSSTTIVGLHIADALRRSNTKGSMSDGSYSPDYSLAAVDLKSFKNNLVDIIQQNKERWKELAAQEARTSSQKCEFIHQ
Chain of Dual specificity calcium/calmodulin-dependent 3',5'-cyclic nucleotide phosphodiesterase 1B (Q01064 whole entry): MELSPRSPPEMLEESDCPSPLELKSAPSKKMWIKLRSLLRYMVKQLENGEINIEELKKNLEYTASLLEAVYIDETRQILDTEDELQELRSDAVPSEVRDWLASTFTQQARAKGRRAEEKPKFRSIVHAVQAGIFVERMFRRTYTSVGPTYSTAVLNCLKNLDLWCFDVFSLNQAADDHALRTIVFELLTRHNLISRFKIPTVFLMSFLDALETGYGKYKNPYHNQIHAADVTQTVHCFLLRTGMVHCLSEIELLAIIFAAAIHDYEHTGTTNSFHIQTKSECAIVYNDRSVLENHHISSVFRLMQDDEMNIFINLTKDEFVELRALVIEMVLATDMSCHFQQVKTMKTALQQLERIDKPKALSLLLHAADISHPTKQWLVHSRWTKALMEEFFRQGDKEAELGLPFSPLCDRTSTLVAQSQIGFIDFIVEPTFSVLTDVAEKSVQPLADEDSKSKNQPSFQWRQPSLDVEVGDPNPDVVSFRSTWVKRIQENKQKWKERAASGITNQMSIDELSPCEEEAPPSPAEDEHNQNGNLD
Chain of High affinity cGMP-specific 3',5'-cyclic phosphodiesterase 9A (O76083 whole entry): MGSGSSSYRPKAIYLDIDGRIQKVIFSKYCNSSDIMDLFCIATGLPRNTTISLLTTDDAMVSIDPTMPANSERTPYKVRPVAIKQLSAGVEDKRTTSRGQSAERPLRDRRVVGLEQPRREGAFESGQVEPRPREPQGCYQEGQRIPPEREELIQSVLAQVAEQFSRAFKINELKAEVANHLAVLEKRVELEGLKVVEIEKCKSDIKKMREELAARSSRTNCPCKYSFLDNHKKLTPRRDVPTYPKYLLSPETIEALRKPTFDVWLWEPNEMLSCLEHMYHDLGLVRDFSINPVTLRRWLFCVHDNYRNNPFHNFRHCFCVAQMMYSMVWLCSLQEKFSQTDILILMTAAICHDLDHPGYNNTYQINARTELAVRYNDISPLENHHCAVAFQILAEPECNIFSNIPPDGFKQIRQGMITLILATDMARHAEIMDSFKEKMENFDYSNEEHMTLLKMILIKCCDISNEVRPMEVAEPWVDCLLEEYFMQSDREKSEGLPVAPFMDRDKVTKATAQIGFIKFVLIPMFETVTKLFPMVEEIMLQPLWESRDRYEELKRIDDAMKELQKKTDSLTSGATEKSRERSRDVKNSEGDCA
Chain of Dual specificity calcium/calmodulin-dependent 3',5'-cyclic nucleotide phosphodiesterase 1C (Q14123 whole entry): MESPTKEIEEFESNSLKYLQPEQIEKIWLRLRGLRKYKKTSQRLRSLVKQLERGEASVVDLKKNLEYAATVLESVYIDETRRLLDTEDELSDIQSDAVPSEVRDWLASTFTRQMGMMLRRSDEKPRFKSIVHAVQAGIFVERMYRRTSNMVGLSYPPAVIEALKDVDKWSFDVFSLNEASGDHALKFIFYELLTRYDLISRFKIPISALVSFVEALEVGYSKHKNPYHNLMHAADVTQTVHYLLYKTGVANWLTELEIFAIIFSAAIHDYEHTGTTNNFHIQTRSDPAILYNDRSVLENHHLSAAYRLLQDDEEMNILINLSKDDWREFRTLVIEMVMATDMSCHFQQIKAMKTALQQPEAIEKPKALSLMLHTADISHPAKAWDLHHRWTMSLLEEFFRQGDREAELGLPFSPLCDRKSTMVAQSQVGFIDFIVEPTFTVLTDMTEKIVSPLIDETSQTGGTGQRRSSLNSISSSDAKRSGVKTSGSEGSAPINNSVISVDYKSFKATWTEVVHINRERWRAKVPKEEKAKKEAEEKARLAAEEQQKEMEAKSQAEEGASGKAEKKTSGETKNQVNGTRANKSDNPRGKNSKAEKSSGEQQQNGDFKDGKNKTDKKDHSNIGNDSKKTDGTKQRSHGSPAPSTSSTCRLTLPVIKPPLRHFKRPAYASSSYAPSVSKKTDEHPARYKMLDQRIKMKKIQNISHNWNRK
Chain of High affinity 3',5'-cyclic-AMP phosphodiesterase 7A (Q13946 whole entry): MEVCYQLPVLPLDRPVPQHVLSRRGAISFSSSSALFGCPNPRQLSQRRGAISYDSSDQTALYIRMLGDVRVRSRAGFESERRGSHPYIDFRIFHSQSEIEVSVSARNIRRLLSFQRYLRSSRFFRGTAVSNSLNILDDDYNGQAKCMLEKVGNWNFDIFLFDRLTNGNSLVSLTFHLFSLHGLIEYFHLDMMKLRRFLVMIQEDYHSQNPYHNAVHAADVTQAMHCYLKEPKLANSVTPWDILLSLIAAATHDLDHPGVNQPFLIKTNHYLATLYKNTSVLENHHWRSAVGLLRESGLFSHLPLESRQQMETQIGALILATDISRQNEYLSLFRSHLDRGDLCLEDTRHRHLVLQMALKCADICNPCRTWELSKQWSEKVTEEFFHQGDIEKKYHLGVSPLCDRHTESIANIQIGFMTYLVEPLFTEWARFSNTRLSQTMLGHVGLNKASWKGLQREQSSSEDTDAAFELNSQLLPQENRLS
Chain of 3',5'-cyclic-AMP phosphodiesterase 7B (Q9NP56 whole entry): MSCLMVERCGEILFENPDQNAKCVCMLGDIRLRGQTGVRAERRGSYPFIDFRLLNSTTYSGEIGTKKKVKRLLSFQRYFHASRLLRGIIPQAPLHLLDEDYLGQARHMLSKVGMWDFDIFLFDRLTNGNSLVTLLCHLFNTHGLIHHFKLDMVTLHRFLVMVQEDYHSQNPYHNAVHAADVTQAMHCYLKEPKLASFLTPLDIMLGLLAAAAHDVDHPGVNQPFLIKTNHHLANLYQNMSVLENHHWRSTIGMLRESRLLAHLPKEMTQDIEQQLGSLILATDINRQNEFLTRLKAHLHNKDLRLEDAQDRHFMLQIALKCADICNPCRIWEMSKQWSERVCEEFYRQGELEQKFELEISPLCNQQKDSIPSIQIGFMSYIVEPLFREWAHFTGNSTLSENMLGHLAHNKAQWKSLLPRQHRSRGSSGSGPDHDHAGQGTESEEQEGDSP
Chain of 3',5'-cyclic-AMP phosphodiesterase 4A (P27815 whole entry): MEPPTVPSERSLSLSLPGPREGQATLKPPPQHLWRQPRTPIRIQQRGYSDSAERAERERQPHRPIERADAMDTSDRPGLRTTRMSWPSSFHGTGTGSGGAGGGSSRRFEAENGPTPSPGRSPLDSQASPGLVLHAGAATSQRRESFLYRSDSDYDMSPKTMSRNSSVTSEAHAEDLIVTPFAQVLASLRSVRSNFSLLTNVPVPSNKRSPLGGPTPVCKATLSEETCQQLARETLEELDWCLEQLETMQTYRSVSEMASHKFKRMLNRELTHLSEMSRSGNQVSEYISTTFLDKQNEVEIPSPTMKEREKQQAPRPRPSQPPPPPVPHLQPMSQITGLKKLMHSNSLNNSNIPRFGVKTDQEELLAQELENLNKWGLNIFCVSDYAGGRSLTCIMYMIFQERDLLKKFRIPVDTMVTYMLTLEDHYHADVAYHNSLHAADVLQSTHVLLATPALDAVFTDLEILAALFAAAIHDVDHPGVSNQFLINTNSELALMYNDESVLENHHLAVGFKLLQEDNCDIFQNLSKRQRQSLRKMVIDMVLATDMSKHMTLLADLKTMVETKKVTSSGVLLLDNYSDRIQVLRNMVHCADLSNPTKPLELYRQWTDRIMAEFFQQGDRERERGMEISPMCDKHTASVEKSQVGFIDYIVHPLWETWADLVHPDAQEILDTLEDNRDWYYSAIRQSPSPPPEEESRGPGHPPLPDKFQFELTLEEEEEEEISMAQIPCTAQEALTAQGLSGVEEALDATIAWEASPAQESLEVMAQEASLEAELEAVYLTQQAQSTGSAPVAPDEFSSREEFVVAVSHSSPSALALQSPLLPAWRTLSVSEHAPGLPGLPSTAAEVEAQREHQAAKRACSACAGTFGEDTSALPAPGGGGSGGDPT
Chain of 3',5'-cyclic-AMP phosphodiesterase 4C (Q08493 whole entry): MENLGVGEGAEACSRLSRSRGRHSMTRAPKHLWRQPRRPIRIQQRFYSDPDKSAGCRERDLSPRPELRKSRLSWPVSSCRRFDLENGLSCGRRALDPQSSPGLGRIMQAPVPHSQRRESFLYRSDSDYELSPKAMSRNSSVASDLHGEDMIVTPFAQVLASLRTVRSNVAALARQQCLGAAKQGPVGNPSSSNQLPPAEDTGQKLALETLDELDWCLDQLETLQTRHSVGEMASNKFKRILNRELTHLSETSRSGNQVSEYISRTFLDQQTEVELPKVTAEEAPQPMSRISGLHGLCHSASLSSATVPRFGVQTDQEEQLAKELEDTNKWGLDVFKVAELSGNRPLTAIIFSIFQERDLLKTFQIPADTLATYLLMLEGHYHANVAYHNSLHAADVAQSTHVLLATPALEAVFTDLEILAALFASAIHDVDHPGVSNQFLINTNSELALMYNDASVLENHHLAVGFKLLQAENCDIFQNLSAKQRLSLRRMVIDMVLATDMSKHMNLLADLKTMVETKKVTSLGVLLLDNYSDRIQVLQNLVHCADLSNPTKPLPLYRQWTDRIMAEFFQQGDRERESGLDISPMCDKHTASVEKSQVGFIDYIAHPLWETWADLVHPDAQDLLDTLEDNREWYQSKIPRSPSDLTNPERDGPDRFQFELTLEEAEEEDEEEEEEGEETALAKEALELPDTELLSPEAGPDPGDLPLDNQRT

Molecule CC(C)c1n[nH]c2c(=O)[nH]c(Cc3cccc(Cl)c3)nc12 has an IC50 [1] of 38 nM, an IC50 [2] of 54 nM and an IC50 [3] of 4 nM.

In the case of CC(C)c1n[nH]c2c(=O)[nH]c(C[C@@H]3CCCC[C@H]3Nc3ncc(C(=O)O)c(C(F)(F)F)n3)nc12, the IC50 [4] is reported as > 1000 nM, the IC50 (Mus musculus [5]) is reported as > 1000 nM and the bioavailability [6] is reported as 100%. For the same molecule, the IC50 [7] was > 1000 nM, the IC50 [1] was > 10000 nM and the Vd [8] was 0.12 L/kg. For the same molecule, the IC50 [2] was > 10000 nM, the IC50 [9] was 370 nM and the IC50 [10] was > 1000 nM. For the same molecule, the IC50 [11] was > 1000 nM, the IC50 [12] was > 1000 nM and the IC50 [13] was > 1000 nM. For the same molecule, the IC50 (Mus musculus [14]) was > 1000 nM, the IC50 [15] was > 1000 nM and the IC50 [16] was > 1000 nM. For the same molecule, the IC50 (Mus musculus [17]) was > 1000 nM, the IC50 [18] was > 1000 nM and the IC50 [3] was > 10000 nM. The IC50 [19] was > 1000 nM, the IC50 [20] was > 1000 nM and the clearance (in vivo) was 19.8 mL/min/kg. The IC50 [21] was > 1000 nM, the IC50 [22] was > 1000 nM and the IC50 [23] was 7 nM. The IC50 [24] was > 1000 nM.

With CC(C)c1[nH]nc2c(=O)[nH]c(C[C@@H]3CCCC[C@H]3NC(=O)NCCCN3CCOCC3)nc12 the IC50 [1] was > 10000 nM, the IC50 [2] was > 10000 nM and the Papp [25] was 0.7 ×10⁻⁶ cm/s. The IC50 [3] was 4200 nM and the IC50 [23] was 46 nM.

With CC(C)c1[nH]nc2c(=O)[nH]c(C[C@@H]3CCCC[C@H]3NC(=O)CC3CCOCC3)nc12 the IC50 [1] was > 10000 nM, the IC50 [2] was > 10000 nM and the IC50 [3] was 3100 nM. For the same molecule, the IC50 [23] was 19 nM.

For CC(C)c1n[nH]c2c(=O)[nH]c(C[C@@H]3CCCC[C@H]3Nc3ncccn3)nc12, the IC50 [4] was > 10000 nM, the IC50 [7] was > 10000 nM and the IC50 [1] was 9800 nM. For the same molecule, the IC50 [2] was 7700 nM, the IC50 [9] was 1500 nM and the IC50 [10] was > 10000 nM. The IC50 [11] was > 10000 nM, the IC50 [12] was > 10000 nM and the IC50 [13] was > 10000 nM. The IC50 [15] was > 10000 nM, the IC50 [16] was > 10000 nM and the IC50 [18] was > 10000 nM. The IC50 [3] was 4400 nM, the IC50 [19] was > 10000 nM and the IC50 [20] was > 10000 nM. The IC50 [21] was 8400 nM, the IC50 [22] was > 10000 nM and the IC50 [23] was 35 nM. The IC50 [24] was > 10000 nM.

With CC(C)c1n[nH]c2c(=O)[nH]c(Cc3ccccc3OC(F)(F)F)nc12 the IC50 [1] was 2650 nM, the IC50 [2] was 2500 nM and the Papp [25] was 10.8 ×10⁻⁶ cm/s. The IC50 [3] was 520 nM and the IC50 [23] was 56 nM.
